Laboratory results: patent publication US6733777B2, “Cationic reagents of transfection” (Qiagen GmbH, priority 1996, dated 2004)
Where “and” joins values, the source holds several entries; their conditions need not be identical. Identical values can stand only once. Like-named read-outs stand apart in the source and are kept apart here.

How the values were obtained:
HeLaS3 cells [1] = conditions: liposome with DOPE, 0.5 μg pCMVβ
Method: (§1) Without sonication, liposomes were prepared at 60° C. by combining DOPE with one of the following:
(§2) The resulting liposomes were used to transfect HeLaS3 and Huh7 cells in vitro with the reporter plasmid pCMVβ (Clontech). Transfection efficiency values, obtained by taking OD measurements after cell-lysis and β-Gal activity assay, were compared to efficiencies obtained in parallel with a commercially available liposome-preparation (Lipofectamine, Gibco LTI) and given as percentage of Lipofectamine efficiency. In each transfection, 0.5 μg of pCMVβ (isolated with EndoFree, QIAGEN) was used per well of a 96 well plate. The DNA was diluted to 50 μl with DMEM medium (Gibco LTI) and combined with 1, 2, 3 and 4 μl of the liposome preparations subsequently diluted to 50 μl with DMEM medium. DNA and liposome solutions were mixed and applied to the cells for 6 hours at 37° C., 5% CO2. Afterwards, medium was changed to DMEM containing 10% fetal calf serum. Cells were lysed after 48 h incubation at 37° C., 5% CO2.
(§3) Twofold determinations each were performed. The values were averaged and the highest efficiency (optimum) within a row was given as percentage value of the highest efficiency (optimum) obtained with Lipofectamine.

Huh7 cells [2] = conditions: liposome with DOPE, 0.5 μg pCMVβ
Method: as §1, §2, §3

COS7 cells = conditions: liposome with DOPE, 1 μg pCMVβ, optimum of 1-4 μl liposome
Method: (§4) Liposomes were prepared at 60° C. by combining 10-3-10 (Propandiyl-1,3-bis(decyl dimethylammonium bromide) and DOPE (as described in Example 3), with and without sonication.
(§5) Liposomes were used to transfect HeLaS3 and COS7 cells in vitro with the reporter plasmid pCMVβ (Clontech). Transfection efficiencies, as obtained by optical density (OD) measurements after cell-lysis and β-Gal activity assay, were compared to efficiencies obtained in parallel with a commercially available liposome-preparation (Lipofectamine, Gibco LTI) and given as percentage of Lipofectamine efficiency. For each transfection, 1 μg of pCMVβ (isolated with EndoFree, QIAGEN) was used per well of a 96-well plate. The DNA was diluted to 50 μl with DMEM medium (Gibco LTI) and combined with 1, 2, 3 and 4 μl of the liposome preparations subsequently diluted to 50 μl with DMEM medium. DNA and liposome solutions were mixed and applied to the cells for 6 hours at 37° C., 5% CO2. Afterwards, medium was changed to DMEM containing 10% fetal calf serum. Cells were lysed after 48 h incubation at 37° C., 5% CO2.
as §3

HeLaS3 cells [3] = conditions: for Results (%) HeLaS3 (transfection efficiency as percentage of Lipofectamine efficiency): liposome with DOPE, 1 μg pCMVβ, optimum of 1-4 μl liposome
Method: as §4, §5, §3

Huh7 cells [4] = system: Huh7 cells
Method: The resulting liposomes were used to transfect Huh7 cells in vitro with the reporter plasmid pCMVβ (Clontech). Transfection efficiencies, as obtained by OD measurements after cell-lysis and β-Gal activity assay, were compared to efficiencies obtained in parallel with a commercially available liposome-preparation (Lipofectamine, Gibco LTI) and given as percentage of Lipofectamine efficiency. For each transfection, 0.5 μg of pCMVβ (isolated with EndoFree, QIAGEN) was used per well of a 96 well plate. The DNA was diluted to 50 μl with DMEM medium (Gibco LTI) and combined with 1, 2, 3 and 4 μl of the liposome preparations subsequently diluted to 50 μl with DMEM medium. DNA and liposome solutions were mixed and applied to the cells for 6 hours at 37° C., 5% CO2. Afterwards, medium was changed to DMEM containing 10% fetal calf serum. Cells were lysed after 48 h incubation at 37° C., 5% CO2. Twofold determinations each were performed. The values were averaged and the highest efficiency (optimum) within a row was given as percentage value of the highest efficiency (optimum) obtained with Lipofectamine.

HeLaS3 cells [5] = experiment: Transfection of HeLaS3 cells with pCMVβ, β-Gal activity assay (variation of counter ion); assay type: cell-based; conditions: 10-2-10 cytofectin with the given counter ion, liposome with DOPE, 0.5 μg pCMVβ
Method: Liposomes were used to transfect HeLaS3 cells in vitro with the reporter plasmid pCMVβ (Clontech). […] Cells were incubated for 48 hours at 37° C., 5% CO2 and then lysed.
In similar studies in HeLaS3 cells, the same vector was transfected with liposomes comprising bromide counter ions and the cytofectin, 10-2-10 Ethandiyl-1,2-bis(decyl dimethylammonium).

[6] = X(DOPE) 0.50, without sonication
[7] = X(DOPE) 0.60, without sonication
[8] = X(DOPE) 0.70, without sonication
[9] = X(DOPE) 0.80, without sonication

Butanediyl-1,4-bis(decyl dimethyl-ammonium bromide) [10-4-10]
Results (%) HeLaS3 (transfection efficiency as percentage of Lipofectamine efficiency) (HeLaS3 cells [1]; [6]): 200% | Results (%) HeLaS3 (transfection efficiency as percentage of Lipofectamine efficiency) (HeLaS3 cells [1]; [7]): 257% | Results (%) HeLaS3 (transfection efficiency as percentage of Lipofectamine efficiency) (HeLaS3 cells [1]; [8]): 200% | Results (%) HeLaS3 (transfection efficiency as percentage of Lipofectamine efficiency) (HeLaS3 cells [1]; [9]): 123% | Results (%) Huh7 (transfection efficiency as percentage of Lipofectamine efficiency) (Huh7 cells [2]; [6]): 76% | Results (%) Huh7 (transfection efficiency as percentage of Lipofectamine efficiency) (Huh7 cells [2]; [7]): 62% | Results (%) Huh7 (transfection efficiency as percentage of Lipofectamine efficiency) (Huh7 cells [2]; [8]): 54% | Results (%) Huh7 (transfection efficiency as percentage of Lipofectamine efficiency) (Huh7 cells [2]; [9]): 34%

Propandiyl-1,3-bis(decyl dimethylammonium bromide) [10-3-10]
Results % COS7 (transfection efficiency as percentage of Lipofectamine efficiency) (COS7 cells; X(DOPE) 0.20, sonic. for 300 s): 6% | Results % COS7 (transfection efficiency as percentage of Lipofectamine efficiency) (COS7 cells; X(DOPE) 0.20, w/o sonication): 6% | Results % COS7 (transfection efficiency as percentage of Lipofectamine efficiency) (COS7 cells; X(DOPE) 0.35, sonic. for 300 s): 6% | Results % COS7 (transfection efficiency as percentage of Lipofectamine efficiency) (COS7 cells; X(DOPE) 0.35, w/o sonication): 6% | Results % COS7 (transfection efficiency as percentage of Lipofectamine efficiency) (COS7 cells; X(DOPE) 0.50, sonic. for 300 s): 6% | Results % COS7 (transfection efficiency as percentage of Lipofectamine efficiency) (COS7 cells; X(DOPE) 0.50, w/o sonication): 7% | Results % COS7 (transfection efficiency as percentage of Lipofectamine efficiency) (COS7 cells; X(DOPE) 0.65, sonic. for 300 s): 8% | Results % COS7 (transfection efficiency as percentage of Lipofectamine efficiency) (COS7 cells; X(DOPE) 0.65, w/o sonication): 26% | Results (%) HeLaS3 (transfection efficiency as percentage of Lipofectamine efficiency) (HeLaS3 cells [3]; X(DOPE) 0.20, sonic. for 300 s): 39% | Results (%) HeLaS3 (transfection efficiency as percentage of Lipofectamine efficiency) (HeLaS3 cells [3]; X(DOPE) 0.20, w/o sonication): 39% | Results (%) HeLaS3 (transfection efficiency as percentage of Lipofectamine efficiency) (HeLaS3 cells [3]; X(DOPE) 0.35, sonic. for 300 s): 39% | Results (%) HeLaS3 (transfection efficiency as percentage of Lipofectamine efficiency) (HeLaS3 cells [3]; X(DOPE) 0.35, w/o sonication): 61% | Results (%) HeLaS3 (transfection efficiency as percentage of Lipofectamine efficiency) (HeLaS3 cells [3]; X(DOPE) 0.50, sonic. for 300 s): 47% | Results (%) HeLaS3 (transfection efficiency as percentage of Lipofectamine efficiency) (HeLaS3 cells [3]; X(DOPE) 0.50, w/o sonication): 115% | Results (%) HeLaS3 (transfection efficiency as percentage of Lipofectamine efficiency) (HeLaS3 cells [3]; X(DOPE) 0.65, sonic. for 300 s): 83% | Results (%) HeLaS3 (transfection efficiency as percentage of Lipofectamine efficiency) (HeLaS3 cells [3]; X(DOPE) 0.65, w/o sonication): 275% | cell-type specificity compared with Lipofectamine (HeLaS3 cells [3]; liposomes with DOPE, HeLaS3 versus COS7): more cell-type specific than Lipofectamine | Results (%) HeLaS3 (transfection efficiency as percentage of Lipofectamine efficiency) (HeLaS3 cells [1]; [6]): 241% | Results (%) HeLaS3 (transfection efficiency as percentage of Lipofectamine efficiency) (HeLaS3 cells [1]; [7]): 293% | Results (%) HeLaS3 (transfection efficiency as percentage of Lipofectamine efficiency) (HeLaS3 cells [1]; [8]): 223% | Results (%) HeLaS3 (transfection efficiency as percentage of Lipofectamine efficiency) (HeLaS3 cells [1]; [9]): 118% | Results (%) Huh7 (transfection efficiency as percentage of Lipofectamine efficiency) (Huh7 cells [2]; [6]): 80% | Results (%) Huh7 (transfection efficiency as percentage of Lipofectamine efficiency) (Huh7 cells [2]; [7]): 83% | Results (%) Huh7 (transfection efficiency as percentage of Lipofectamine efficiency) (Huh7 cells [2]; [8]): 54% | Results (%) Huh7 (transfection efficiency as percentage of Lipofectamine efficiency) (Huh7 cells [2]; [9]): 39%

Br [10-2-10, Ethanediyl-1,2-bis(decyldimethylammonium bromide)]
Result (%) (transfection efficiency as percentage of Lipofectamine efficiency) (Huh7 cells [4]): 111% and 115% | Result (%) (transfection efficiency as percentage of Lipofectamine efficiency) (Huh7 cells [4]; Huh7, liposome with DOPE, X(DOPE) 0.50, without sonication, 0.5 μg pCMVβ): 142% | Result (%) (transfection efficiency as percentage of Lipofectamine efficiency) (Huh7 cells [4]; Huh7, liposome with DOPE, X(DOPE) 0.60, without sonication, 0.5 μg pCMVβ): 127% | Results (%) (optimal transfection efficiency as percentage of the highest efficiency obtained by Lipofectamine) (HeLaS3 cells [5]; [6]): 216% | Results (%) (optimal transfection efficiency as percentage of the highest efficiency obtained by Lipofectamine) (HeLaS3 cells [5]; [7]): 286% | Results (%) (optimal transfection efficiency as percentage of the highest efficiency obtained by Lipofectamine) (HeLaS3 cells [5]; [8]): 165% | Results (%) (optimal transfection efficiency as percentage of the highest efficiency obtained by Lipofectamine) (HeLaS3 cells [5]; [9]): 178% | Results (%) HeLaS3 (transfection efficiency as percentage of Lipofectamine efficiency) (HeLaS3 cells [1]; [6]): 216% | Results (%) HeLaS3 (transfection efficiency as percentage of Lipofectamine efficiency) (HeLaS3 cells [1]; [7]): 286% | Results (%) HeLaS3 (transfection efficiency as percentage of Lipofectamine efficiency) (HeLaS3 cells [1]; [8]): 165% | Results (%) HeLaS3 (transfection efficiency as percentage of Lipofectamine efficiency) (HeLaS3 cells [1]; [9]): 178% | Results (%) Huh7 (transfection efficiency as percentage of Lipofectamine efficiency) (Huh7 cells [2]; [6]): 142% | Results (%) Huh7 (transfection efficiency as percentage of Lipofectamine efficiency) (Huh7 cells [2]; [7]): 127% | Results (%) Huh7 (transfection efficiency as percentage of Lipofectamine efficiency) (Huh7 cells [2]; [8]): 111% | Results (%) Huh7 (transfection efficiency as percentage of Lipofectamine efficiency) (Huh7 cells [2]; [9]): 115%
